Values after ≈ are worked out from the molar mass of the structure shown. Like-named read-outs stand apart in the source and are kept apart here.
Assays:
[1] = system: Mtb H37Rv strain; experiment: Resazurin (Alamar Blue) MIC assay against replicating Mtb; assay type: cell-based, Mycobacterium tuberculosis; conditions: lowest concentration inhibiting ≥90% growth, initial hits, quinoxaline di-N-oxides, positive controls; for MIC: Mycobacterium tuberculosis, H37RV
[2] = system: Mtb; design: method as in PMID 18502817; conditions: cited from earlier work
[3] = in vitro; conditions: African green monkey
[4] = system: mammalian cell; conditions: cited from earlier work
[5] = mouse, microsomes, pH 7.4
Procedure: The test agent was incubated in duplicate with mouse liver microsomes at 37°C. The reaction contained microsomal protein in 100 mM K3PO4, 2 mM NADPH, and 3 mM MgCl2 at pH 7.4. A control was run for each test agent omitting NADPH to detect NADPH-free degradation. At t = 0 and 60 min, an aliquot was removed from each experimental and control reaction and mixed with an equal volume of ice-cold Stop Solution (methanol containing propranolol as an internal standard). Stopped reactions were incubated at least ten min at -20°C, and an additional volume of water was added. The samples were centrifuged to remove precipitated protein, and the supernatants were analyzed by LC/MS/MS to quantitate the remaining parent. Data were reported as % remaining by dividing by the time zero concentration value.

[6] = physchem; assay type: physicochemical; conditions: 37 °C, pH 7.4, aqueous buffer, kinetic from dmso stock
Procedure: Serial dilutions of the test agent were prepared in DMSO at 100x the final concentration. Test article solutions were diluted 100-fold into pH 7.4 phosphate-buffer saline (PBS) in a 96-well plate and mixed. After 2 h at 37°C, the presence of precipitate was detected by turbidity (absorbance at 540 nm). An absorbance value of greater than ‘mean + 3x standard deviation of the blank’ (after subtracting the background) was indicative of turbidity. For brightly colored compounds, a visual inspection of the plate was performed to verify the solubility limit determined by UV absorbance. The solubility limit was reported as the highest experimental concentration with no evidence of turbidity.

[7] = system: clinical strain 692; experiment: AlamarBlue MIC (absorbance), strain panel: 692; assay type: cell-based; conditions: Mycobacterium tuberculosis, pan-susceptible
[8] = system: Mtb (H37Rv)
[9] = in vitro; conditions: human, Caco-2
[10] = Caco-2 cell permeability; conditions: human
[11] = in vitro cultured Mtb H37Rv, read-out: Mtb MIC (H37Rv)
[12] = 3.2 μg/mL (1.3X MIC), 6 h, vs DMSO

SMILES	MIC [1, 11]	CC50 at 72 h [3]	% Compound remaining after 1h in the absence of NADPH [5]	% Compound remaining after 1h in the presence of NADPH [5]	solubility kinetic at 2 h [6]	Papp A→B at 2 h, 10 μM [9]	Papp B→A at 2 h, 10 μM [9]	other results
CC(=O)c1c(C)[n+]([O-])c2ccccc2[n+]1[O-] [SRI1, 1-(3-methyl-1,4-dioxy-quinoxalin-2-yl)-ethanone]	2.5 µg/mL (≈ 11.5 µM)	> 40 µg/mL	–	–	–	–	–	MIC previously identified [2]: 3.13 µg/mL (≈ 14.3 µM); Mammalian cell cytotoxicity previously reported [4]: no appreciable mammalian cell cytotoxicity
CCCCC(=O)c1c(C)[n+]([O-])c2ccc([N+](=O)[O-])cc2[n+]1[O-] [SRI50]	0.32 µg/mL (≈ 1.05 µM)	3.4 µg/mL (≈ 11.1 µM)	77.5%	0.06%	125 µM (≈ 38.2 µg/mL)	–	–	MIC [7]: 0.16 µg/mL (≈ 0.524 µM)
CCCCC(=O)c1c(C)[n+]([O-])c2cc(Cl)c(Cl)cc2[n+]1[O-] [SRI54]	2.5 µg/mL (≈ 7.59 µM)	15 µg/mL (≈ 45.6 µM)	79.1%	0%	15.6 µM (≈ 5.14 µg/mL)	0.66 ×10⁻⁶ cm/s	0.1 ×10⁻⁶ cm/s	Genes down-regulated at minimum twofold versus control [8, 12]: 184 genes; Genes up-regulated at least twofold versus control [8, 12]: 131 genes; DNA repair genes down-regulated at least twofold ([8]; 3.2 μg/mL, 6 h): 2/59; DNA repair genes up-regulated at least twofold ([8]; 3.2 μg/mL, 6 h): 12/59; Methylcitrate cycle genes (prpC, prpD, icl1) induced more than fourfold versus control ([8]; 3.2 μg/mL, 6 h): 3/13; Avg. fold induction over four replicates, hypothetical protein ORF01494 ([8]; ORF01494, treated vs DMSO): 11.22; Avg. fold induction over four replicates, Rv0560c ([8]; gene Rv0560c, treated vs DMSO): 38.01; Avg. fold induction over four replicates, Rv1130 ([8]; gene Rv1130, treated vs DMSO): 8.92; Avg. fold induction over four replicates, Rv3074 ([8]; gene Rv3074, treated vs DMSO): 8.59; Avg. fold induction over four replicates, gltA1 ([8]; gene gltA1 (Rv1131), treated vs DMSO): 15.16; Hierarchical clustering of transcriptional response ([8]; top 100 most up- and down-regulated genes vs deposited Mtb transcriptional data): clustered most closely to the fatty acid biosynthesis inhibitor CD117; efflux ratio at 2 h, 10 μM [10]: 0.15
Cc1c(C(=O)C2CC2)[n+]([O-])c2cc(Cl)c(Cl)cc2[n+]1[O-] [SRI58]	–	> 40 µg/mL	110%	63.6%	125 µM (≈ 39.1 µg/mL)	2.3 ×10⁻⁶ cm/s	0.57 ×10⁻⁶ cm/s	MIC ([1]; read-out: Mtb MIC (H37Rv), in vitro cultured Mtb H37Rv): 1.2 µg/mL (≈ 3.83 µM); Mtb MIC (H37Rv) ([1]; in vitro cultured Mtb H37Rv): 1.25 µg/mL; efflux ratio at 2 h, 10 μM [9]: 0.25

Reference: article PMC4627656, “Combining Metabolite-Based Pharmacophores with Bayesian Machine Learning Models for Mycobacterium tuberculosis Drug Discovery” (PLoS ONE, 2015)
